Measured values published in patent publication US20120178147A1, “MICROBIAL CULTURES AND METHODS FOR ANAEROBIC BIOREMEDIATION” (priority 2009, published 2012).

Tested on: sediment microcosms
Assay: Effect of TCC, TCS and BES on TCE dechlorination in sediment microcosms and cultures derived from them
Type: cell-based
Procedure: In this study, microcosm is defined as: anaerobic airtight serum bottles with sediment samples, anaerobic medium, electron donor, and a chlorinated compound used as an electron acceptor. Four microcosms were set up in the anaerobic glove chamber with H2 concentration of 3% (Coy laboratory products Inc. Grass Lake, Mich.). Ten gram of homogeneously mixed sediment from either core A or core D were transferred independently into a 160 ml sterile serum bottle, and 90 ml anaerobic media with vitamin solution and 2 mM lactate were added. One hundred μL of 20 mg/L TCC stock solution in methanol and 100 μL of 20 mg/L TCS stock solution were added by pipette (Eppendorf, Calif.) to two of the four microcosms. Microcosms were capped with thick black butyl rubber stoppers and aluminum crimps. 4.5 μL pure TCE was injected with airtight syringe (Hamilton Company, Reno, Nev.) into each serum bottle. On day 130, in order to inhibit methane production in the sediment microcosms, 25 mM BES was added in to sediment-A microcosm and sediment-D microcosm with TCC and TCS with airtight syringe (Hamilton Company, Reno, Nev.). Microcosms were stored in the dark and incubated at 30° C.
Production of Sediment-Free Cultures. To establish sediment-free cultures from core A and core D sediment microcosms, the microcosms were shaken vigorously, and the solids were allowed to settle down. Then, using 1-inch, 21-gauge sterile needles, […] liquid (10 ml) were transferred into 89 ml sterile medium with the following contents: anaerobic medium, ATCC vitamin mix, and vitamin B12, in 160-ml serum bottles. Then, 1 ml each of 500-mM lactate stock solution and 35-μL TCE stock solution (1 mol/L in methanol) were added to form a 100 ml culture in 160-ml serum bottle. Three sediment cultures were derived from each sediment microcosm, and 12 sediment-free cultures were produced (FIG. 1). For organizational purposes, we refer to the sediment-free cultures generated from sediment-A microcosms as SCA and the sediment free cultures generated from sediment-D microcosms as DehaloR̂2, in the figures herein, the DehaloR̂2 are referred to as “SCD”. Thus, the term “SCD” and DehaloR̂2 are used interchangeably herein as the composition “SCD” was renamed “DehaloR̂2” during the course of investigation. The sediment-free cultures were kept in the dark and incubated at 30° C. After all the chlorinated electron acceptors were consumed, the cultures were re-spiked with TCE and electron donors.
BES (2-bromoethanesulfonate) is an efficient inhibitor for the metabolism of methanogens in methanogenetic cultures because it is a structural analog and competitive inhibitor of coenzyme M, which is only found in methanogens (Dimarco et al., 1990; Sparling and Daniels, 1987). Different concentrations of BES have been used by researchers. […] In this study, in order to determine if the cause for incomplete reductive dechlorination was competition for electron donor between methanogens and TCE dechlorinating microorganisms in the microcosms, I added 25 mM BES, 70 μmol of TCE, and 5 mM lactate into two sediment microcosms, sediment-A and sediment-D with TCC and TCS. In two other sediment microcosms, I added 70 μmol of TCE and 5 mM lactate without BES.

O=S(=O)(O)CCBr [BES, 2-bromoethanesulfonic acid]
effect on TCE reductive dechlorination (25 mM BES): exerted some inhibition on TCE reductive dechlorination
methane production (25 mM BES, two sediment microcosms): no methane was produced
effect on TCE dechlorination rates in sediment-free cultures (cultures from microcosms amended with TCC, TCS, BES): slow down TCE dechlorination rates
